Assay results as given in patent publication US20240024488A1, “COMPOUNDS AND USES THEREOF” (Foghorn Therapeutics Inc., priority 2020, published 2024).

Key:
HiBit-BRM fusion protein = molecular target: T1, HiBit-BRM fusion protein (Homo sapiens, UniProt P51531); experiment: HiBiT-BRM cell-based degradation assay (Nano-Glo HiBiT Lytic Detection, 24 h); conditions: HeLa cell line expressing HiBiT-BRM; for DC50: read-out: BRM HiBit Degradation IC50
T1 construct: expressed in transfected cells
Method: (§1) Procedure: A stable HeLa cell line expressing HiBiT-BRM was generated. On day 0, 5000 cells were seeded in 40 μL of media into each well of 384-well cell culture plates. On day 1, cells were treated with 120 nL DMSO or 120 nL of 3-fold serially DMSO-diluted compounds (10 points in duplicate with 30 μM as final top dose). Subsequently plates were incubated for 24 h in a standard tissue culture incubator and equilibrated at room temperature for 15 minutes. Nano-Glo HiBiT Lytic Detection System (Promega N3050) reagent was freshly prepared and 20 ul was added to each well. Upon addition of this LgBit-containing reagent, the HiBiT and LgBiT proteins associate to form the luminescent NanoBiT luciferase. The plates were shaken for 10 minutes at room temperature and the bioluminescence read using an EnVision plate reader (PerkinElmer).
(§2) The degradation % was calculated using the following formula: % degradation=100%−100%×(LumSample−LumLC)/(LumHC−LumLC). DMSO treated cells are employed as High Control (HC) and 2 μM of a known BRM/BRG1 degrader standard treated cells are employed as Low Control (LC).

[1] = molecular target: T2, HiBit-BRG1 fusion protein (Homo sapiens, UniProt P51532); experiment: HiBiT-BRG1 cell-based degradation assay (Nano-Glo HiBiT Lytic Detection, 24 h); conditions: HeLa cell line expressing HiBit-BRG1 and LgBit; for Dmax: read-out: BRG1 HiBit Degradation Maximum (%); for DC50: read-out: BRMG1 HiBit Degradation IC50
T2 construct: expressed in transfected cells
T2 sequence (P51532 whole entry, the tested form may be a part): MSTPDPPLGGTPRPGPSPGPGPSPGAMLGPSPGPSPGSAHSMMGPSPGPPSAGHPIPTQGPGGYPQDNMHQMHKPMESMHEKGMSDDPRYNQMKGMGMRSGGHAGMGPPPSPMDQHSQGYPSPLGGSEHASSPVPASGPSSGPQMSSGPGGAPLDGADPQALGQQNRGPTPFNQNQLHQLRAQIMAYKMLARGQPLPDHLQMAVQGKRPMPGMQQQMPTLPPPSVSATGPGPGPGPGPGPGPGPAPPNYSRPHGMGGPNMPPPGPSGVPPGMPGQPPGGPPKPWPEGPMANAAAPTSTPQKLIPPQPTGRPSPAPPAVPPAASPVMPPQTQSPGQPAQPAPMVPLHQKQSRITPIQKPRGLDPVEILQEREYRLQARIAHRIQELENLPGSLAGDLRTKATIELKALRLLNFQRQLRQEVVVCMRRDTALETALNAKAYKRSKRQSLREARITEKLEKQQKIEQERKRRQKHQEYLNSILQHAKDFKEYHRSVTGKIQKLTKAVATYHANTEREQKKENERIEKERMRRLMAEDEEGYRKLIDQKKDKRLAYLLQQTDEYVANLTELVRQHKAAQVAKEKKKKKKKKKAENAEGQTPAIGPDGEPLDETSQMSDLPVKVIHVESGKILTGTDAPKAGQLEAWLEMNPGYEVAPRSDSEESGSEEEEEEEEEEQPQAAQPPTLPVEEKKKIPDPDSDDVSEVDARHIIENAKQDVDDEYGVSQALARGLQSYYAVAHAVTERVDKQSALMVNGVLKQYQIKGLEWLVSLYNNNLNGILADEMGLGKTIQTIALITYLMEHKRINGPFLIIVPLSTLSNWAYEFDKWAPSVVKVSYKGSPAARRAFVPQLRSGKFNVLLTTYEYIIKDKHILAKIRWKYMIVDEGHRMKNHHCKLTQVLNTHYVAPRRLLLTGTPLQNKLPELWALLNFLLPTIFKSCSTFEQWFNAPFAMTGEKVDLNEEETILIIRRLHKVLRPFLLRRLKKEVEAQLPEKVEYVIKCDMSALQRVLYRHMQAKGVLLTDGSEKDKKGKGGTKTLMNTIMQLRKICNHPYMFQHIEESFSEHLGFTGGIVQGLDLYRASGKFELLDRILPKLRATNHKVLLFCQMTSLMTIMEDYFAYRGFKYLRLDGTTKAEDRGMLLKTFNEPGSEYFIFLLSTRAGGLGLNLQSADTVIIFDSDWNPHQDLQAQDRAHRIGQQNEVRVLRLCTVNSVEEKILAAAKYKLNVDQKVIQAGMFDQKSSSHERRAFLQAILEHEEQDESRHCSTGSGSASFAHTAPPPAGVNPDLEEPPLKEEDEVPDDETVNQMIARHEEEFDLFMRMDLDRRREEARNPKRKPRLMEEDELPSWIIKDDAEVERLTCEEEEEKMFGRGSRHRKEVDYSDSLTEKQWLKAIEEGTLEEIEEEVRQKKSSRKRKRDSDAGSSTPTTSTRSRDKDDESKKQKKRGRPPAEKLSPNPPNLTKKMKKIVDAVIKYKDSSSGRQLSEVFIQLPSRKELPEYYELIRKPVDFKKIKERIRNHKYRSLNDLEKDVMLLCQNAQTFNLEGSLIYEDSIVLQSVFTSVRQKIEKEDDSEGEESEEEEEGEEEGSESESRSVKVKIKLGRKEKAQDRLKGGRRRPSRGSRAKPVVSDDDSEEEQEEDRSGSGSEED
Method: as §1, with “On day 1, cells were treated with 120 nL DMSO or 120 nL of 3-fold serially DMSO-diluted compounds (10 points in duplicate with 30 μM as final top dose).” left out
For measurement of BRG1 degradation, a stable HeLa cell line expressing HiBit-BRG1 and LgBit was generated. The same protocol as above was then followed.
as §2

T1 sequence (P51531 whole entry, the tested form may be a part): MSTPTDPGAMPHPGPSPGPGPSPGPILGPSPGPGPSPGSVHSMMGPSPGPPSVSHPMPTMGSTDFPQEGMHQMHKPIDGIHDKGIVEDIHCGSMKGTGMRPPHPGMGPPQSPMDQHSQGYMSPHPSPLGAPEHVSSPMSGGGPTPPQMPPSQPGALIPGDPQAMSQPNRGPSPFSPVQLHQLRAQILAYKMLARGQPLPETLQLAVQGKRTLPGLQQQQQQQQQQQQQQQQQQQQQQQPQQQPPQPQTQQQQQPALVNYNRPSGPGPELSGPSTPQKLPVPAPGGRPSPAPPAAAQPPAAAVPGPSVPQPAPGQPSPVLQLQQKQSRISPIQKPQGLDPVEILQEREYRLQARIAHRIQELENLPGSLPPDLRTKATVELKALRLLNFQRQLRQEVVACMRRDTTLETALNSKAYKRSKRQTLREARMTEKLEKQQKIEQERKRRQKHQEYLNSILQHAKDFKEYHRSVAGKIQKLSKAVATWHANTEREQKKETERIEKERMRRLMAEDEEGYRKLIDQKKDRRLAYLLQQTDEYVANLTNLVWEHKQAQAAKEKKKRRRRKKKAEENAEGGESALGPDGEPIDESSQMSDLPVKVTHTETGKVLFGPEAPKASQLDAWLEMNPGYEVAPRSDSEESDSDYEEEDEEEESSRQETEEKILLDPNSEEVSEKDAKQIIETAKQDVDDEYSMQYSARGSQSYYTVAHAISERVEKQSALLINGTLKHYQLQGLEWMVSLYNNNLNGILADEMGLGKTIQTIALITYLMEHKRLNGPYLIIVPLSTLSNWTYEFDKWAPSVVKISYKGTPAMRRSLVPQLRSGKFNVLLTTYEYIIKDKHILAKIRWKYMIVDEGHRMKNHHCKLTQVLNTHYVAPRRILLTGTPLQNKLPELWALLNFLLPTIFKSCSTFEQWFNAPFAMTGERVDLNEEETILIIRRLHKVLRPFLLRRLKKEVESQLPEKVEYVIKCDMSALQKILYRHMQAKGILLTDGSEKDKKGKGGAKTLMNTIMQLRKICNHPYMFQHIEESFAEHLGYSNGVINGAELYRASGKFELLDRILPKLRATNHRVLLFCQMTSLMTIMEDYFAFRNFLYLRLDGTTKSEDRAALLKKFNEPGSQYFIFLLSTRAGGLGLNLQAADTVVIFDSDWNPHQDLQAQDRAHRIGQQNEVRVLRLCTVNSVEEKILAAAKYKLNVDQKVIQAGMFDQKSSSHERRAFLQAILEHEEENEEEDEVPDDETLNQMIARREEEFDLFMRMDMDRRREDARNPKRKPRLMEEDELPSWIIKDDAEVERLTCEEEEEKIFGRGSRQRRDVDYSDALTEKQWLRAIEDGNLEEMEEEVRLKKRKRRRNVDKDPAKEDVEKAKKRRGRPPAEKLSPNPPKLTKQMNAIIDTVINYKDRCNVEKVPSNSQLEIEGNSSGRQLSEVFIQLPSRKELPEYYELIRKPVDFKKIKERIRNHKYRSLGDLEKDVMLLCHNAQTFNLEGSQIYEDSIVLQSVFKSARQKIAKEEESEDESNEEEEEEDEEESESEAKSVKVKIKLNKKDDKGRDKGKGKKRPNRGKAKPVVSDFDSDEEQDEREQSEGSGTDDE

Row | Compound | DC50 (HiBit-BRM fusion protein) [µM] | Dmax [1] [%] | DC50 [1] [µM] | BRM HiBit Degradation Maximum (%) (HiBit-BRM fusion protein)
1 | Cc1ncsc1-c1ccc(CNC(=O)[C@@H]2C[C@@H](O)CN2C(=O)[C@@H](NC(=O)CCCCCNCCC(=O)N2CC(c3cc4cc(-c5ccccc5O)nnc4[nH]3)C2)C(C)(C)C)cc1 (racemic) [Compound 55, (2S,4R)-4-hydroxy-1-((S)-2-(6-((3-(3-(3-(2-hydroxyphenyl)-7H-pyrrolo[2,3-c]pyridazin-6-yl)azetidin-1-yl)-3-oxopropyl)amino)hexanamido)-3,3-dimethylbutanoyl)-N-(4-(4-methylthiazol-5-yl)benzyl)pyrrolidine-2-carboxamide] | – | < 50 | – | C (“C” indicates maximum degradation < 50%)
2 | Cc1ncsc1-c1ccc(CNC(=O)[C@@H]2C[C@@H](O)CN2C(=O)[C@@H](NC(=O)CCCCCCCNCCC(=O)N2CC(c3c[nH]c4nnc(-c5ccccc5O)cc34)C2)C(C)(C)C)cc1 (racemic) [Compound 56, (2S,4R)-4-hydroxy-1-((S)-2-(8-((3-(3-(3-(2-hydroxyphenyl)-7H-pyrrolo[2,3-c]pyridazin-5-yl)azetidin-1-yl)-3-oxopropyl)amino)octanamido)-3,3-dimethylbutanoyl)-N-(4-(4-methylthiazol-5-yl)benzyl)pyrrolidine-2-carboxamide] | > 1 | < 50 | – | B (“B” indicates maximum degradation ≥ 50%)
3 | Cc1ncsc1-c1ccc(CNC(=O)[C@@H]2C[C@@H](O)CN2C(=O)[C@@H](NC(=O)CCCCCNCCC(=O)N2CC(c3c[nH]c4nnc(-c5ccccc5O)cc34)C2)C(C)(C)C)cc1 (racemic) [Compound 57, (2S,4R)-4-hydroxy-1-((S)-2-(6-((3-(3-(3-(2-hydroxyphenyl)-7H-pyrrolo[2,3-c]pyridazin-5-yl)azetidin-1-yl)-3-oxopropyl)amino)hexanamido)-3,3-dimethylbutanoyl)-N-(4-(4-methylthiazol-5-yl)benzyl)pyrrolidine-2-carboxamide] | – | < 50 | – | C (“C” indicates maximum degradation < 50%)
4 | Cc1ncsc1-c1ccc(CNC(=O)[C@@H]2C[C@@H](O)CN2C(=O)[C@@H](NC(=O)CCCN2CC(c3cc4cc(-c5ccccc5O)nnc4[nH]3)C2)C(C)(C)C)cc1 (racemic) [Compound 60, (2S,4R)-4-hydroxy-1-((S)-2-(4-(3-(3-(2-hydroxyphenyl)-7H-pyrrolo[2,3-c]pyridazin-6-yl)azetidin-1-yl)butanamido)-3,3-dimethylbutanoyl)-N-(4-(4-methylthiazol-5-yl)benzyl)pyrrolidine-2-carboxamide] | – | < 50 | – | C (“C” indicates maximum degradation < 50%)
5 | Cc1ncsc1-c1ccc(CNC(=O)[C@@H]2C[C@@H](O)CN2C(=O)[C@@H](NC(=O)CN2CC(c3cc4cc(-c5ccccc5O)nnc4[nH]3)C2)C(C)(C)C)cc1 (racemic) [Compound 61, (2S,4R)-4-hydroxy-1-((S)-2-(2-(3-(3-(2-hydroxyphenyl)-7H-pyrrolo[2,3-c]pyridazin-6-yl)azetidin-1-yl)acetamido)-3,3-dimethylbutanoyl)-N-(4-(4-methylthiazol-5-yl)benzyl)pyrrolidine-2-carboxamide] | > 1 | > 75 | > 1 | A (“A” indicates maximum degradation ≥ 75%)
6 | Cc1ncsc1-c1ccc(CNC(=O)[C@@H]2C[C@@H](O)CN2C(=O)[C@@H](NC(=O)C2(F)CC2)C(C)(C)C)c(OCCN2CC(c3cc4cc(-c5ccccc5O)nnc4[nH]3)C2)c1 (racemic) [Compound 63, (2S,4R)-1-((S)-2-(1-fluorocyclopropane-1-carboxamido)-3,3-dimethylbutanoyl)-4-hydroxy-N-(2-(2-(3-(3-(2-hydroxyphenyl)-7H-pyrrolo[2,3-c]pyridazin-6-yl)azetidin-1-yl)ethoxy)-4-(4-methylthiazol-5-yl)benzyl)pyrrolidine-2-carboxamide] | – | < 50 | – | C (“C” indicates maximum degradation < 50%)
7 | Cc1ncsc1-c1ccc(CNC(=O)[C@@H]2C[C@@H](O)CN2C(=O)[C@@H](NC(=O)CCCCCCCNCCC(=O)N2CC(c3cc4cc(-c5ccccc5O)nnc4[nH]3)C2)C(C)(C)C)cc1 (racemic) [Compound 66, (2S,4R)-4-hydroxy-1-((S)-2-(8-((3-(3-(3-(2-hydroxyphenyl)-7H-pyrrolo[2,3-c]pyridazin-6-yl)azetidin-1-yl)-3-oxopropyl)amino)octanamido)-3,3-dimethylbutanoyl)-N-(4-(4-methylthiazol-5-yl)benzyl)pyrrolidine-2-carboxamide] | – | < 50 | – | C (“C” indicates maximum degradation < 50%)

More lines, main results first:

Row | DC50 (HiBit-BRM fusion protein) [µM] | Dmax [1] [%] | DC50 [1] [µM] | Compound | BRM HiBit Degradation Maximum (%) (HiBit-BRM fusion protein)
8 | > 0.01 | > 50 | > 0.1 | Cc1ncsc1-c1ccc([C@H](C)NC(=O)[C@@H]2C[C@@H](O)CN2C(=O)[C@@H](c2cc(OCCN3CC4(CC(c5cc6cc(-c7ccccc7O)nnc6[nH]5)C4)C3)no2)C(C)C)cc1 (racemic) [Compound 54, (2S,4R)-4-hydroxy-1-((R)-2-(3-(2-(6-(3-(2-hydroxyphenyl)-7H-pyrrolo[2,3-c]pyridazin-6-yl)-2-azaspiro[3.3]heptan-2-yl)ethoxy)isoxazol-5-yl)-3-methylbutanoyl)-N-((S)-1-(4-(4-methylthiazol-5-yl)phenyl)ethyl)pyrrolidine-2-carboxamide] | A (“A” indicates maximum degradation ≥ 75%)
9 | > 0.1 | > 75 | > 0.1 | Cc1ncsc1-c1ccc([C@H](C)NC(=O)[C@@H]2C[C@@H](O)CN2C(=O)[C@@H](c2cc(OCCN3CCN(CCN4CC(c5cc6cc(-c7ccccc7O)nnc6[nH]5)C4)CC3)no2)C(C)C)cc1 (racemic) [Compound 58, (2S,4R)-4-hydroxy-1-((R)-2-(3-(2-(4-(2-(3-(3-(2-hydroxyphenyl)-7H-pyrrolo[2,3-c]pyridazin-6-yl)azetidin-1-yl)ethyl)piperazin-1-yl)ethoxy)isoxazol-5-yl)-3-methylbutanoyl)-N-((S)-1-(4-(4-methylthiazol-5-yl)phenyl)ethyl)pyrrolidine-2-carboxamide] | A (“A” indicates maximum degradation ≥ 75%)
10 | > 0.1 | < 50 | – | Cc1ncsc1-c1ccc([C@H](C)NC(=O)[C@@H]2C[C@@H](O)CN2C(=O)[C@@H](c2cc(OCCN(C)CCN3CC(c4cc5cc(-c6ccccc6O)nnc5[nH]4)C3)no2)C(C)C)cc1 (racemic) [Compound 59, (2S,4R)-4-hydroxy-1-((R)-2-(3-(2-((2-(3-(3-(2-hydroxyphenyl)-7H-pyrrolo[2,3-c]pyridazin-6-yl)azetidin-1-yl)ethyl)(methyl)amino)ethoxy)isoxazol-5-yl)-3-methylbutanoyl)-N-((S)-1-(4-(4-methylthiazol-5-yl)phenyl)ethyl)pyrrolidine-2-carboxamide] | B (“B” indicates maximum degradation ≥ 50%)
11 | > 0.1 | < 50 | – | Cc1ncsc1-c1ccc([C@H](C)NC(=O)[C@@H]2C[C@@H](O)CN2C(=O)[C@@H](c2cc(OCCN(C)CCC(=O)N3CC(c4cc5cc(-c6ccccc6O)nnc5[nH]4)C3)no2)C(C)C)cc1 (racemic) [Compound 64, (2S,4R)-4-hydroxy-1-((R)-2-(3-(2-((3-(3-(3-(2-hydroxyphenyl)-7H-pyrrolo[2,3-c]pyridazin-6-yl)azetidin-1-yl)-3-oxopropyl)(methyl)amino)ethoxy)isoxazol-5-yl)-3-methylbutanoyl)-N-((S)-1-(4-(4-methylthiazol-5-yl)phenyl)ethyl)pyrrolidine-2-carboxamide] | B (“B” indicates maximum degradation ≥ 50%)
12 | > 1 | < 50 | – | Cc1ncsc1-c1ccc([C@H](C)NC(=O)[C@@H]2C[C@@H](O)CN2C(=O)[C@@H](c2cc(OCCNCCC(=O)N3CC(c4cc5cc(-c6ccccc6O)nnc5[nH]4)C3)no2)C(C)C)cc1 (racemic) [Compound 65, (2S,4R)-4-hydroxy-1-((R)-2-(3-(2-((3-(3-(3-(2-hydroxyphenyl)-7H-pyrrolo[2,3-c]pyridazin-6-yl)azetidin-1-yl)-3-oxopropyl)amino)ethoxy)isoxazol-5-yl)-3-methylbutanoyl)-N-((S)-1-(4-(4-methylthiazol-5-yl)phenyl)ethyl)pyrrolidine-2-carboxamide] | B (“B” indicates maximum degradation ≥ 50%)
